Source: article PMC10317891, “Fibroblast activation protein targeted radiotherapy induces an immunogenic tumor microenvironment and enhances the efficacy of PD-1 immune checkpoint inhibition” (European Journal of Nuclear Medicine and Molecular Imaging, 2023)
Numbered stars: 1 amine (or outer) side, 2 acyl side, 3 side chain; on linkers, the order of the positions; unused ones are H or OH. Bridge positions count the residues as written; N and C are the ends. Peptide text beside a SMILES is read from it. * marks the point of attachment. X1 = O=C(O)CN1CCN(CC(=O)O)CCN(CC(=O)N2CCN(Cc3cc(C[*:1])cc(C[*:2])c3)CC2)CCN(CC(=O)O)CC1; Hexanoyl = CCCCCC(=O)*

Assay: Plasma stability
Assay type: in vitro ADME
Details: 10 µM, 37°C, UHPLC-QTOF MS with internal standard
Method: FAP-2287 was incubated in 50 µL of plasma with 3.8% sodium citrate as anticoagulant at a concentration of 10 µM. After 1, 2, 4, and 24 hours incubation at 37°C a suitable internal standard was added. FAP-2287 with plasma proteins were precipitated using 250 µL of a precipitation agent consisting of 1% trifluoroacetic acid in acetonitrile. Precipitation was carried out at room temperature for 30 minutes. After centrifugation at 18,200 relative centrifugal force (rcf) for 5 minutes, 100 µL of the supernatant was mixed with 100 µL of 1% formic acid.
A nonincubated plasma sample spiked with 10 µM sample concentration was prepared in the same way and was used as the reference. A pure plasma sample was incubated for 24 hours as a blank sample. A further pure plasma sample was incubated for 24 hours, processed as described above and spiked directly before analysis to determine the recovery. The samples were analyzed using an Agilent 1290 UHPLC system coupled to an Agilent 6530 QTOF mass spectrometer.
For the quantitative data analysis, the Agilent Quantitative Analysis B.08.00 software (RRID:SCR_015040) was used. The ion currents of the triply charged proton adducts of the compounds were extracted with a mass window of ±50 parts per million and the chromatographic peak was integrated. The concentration of the compound was determined by external matrix calibration with internal standard using 6 calibration samples (1, 2.5, 5, 7.5, 10, and 12.5 µM). A quadratic regression was performed. Carryover was determined by analyzing the blank sample directly after the highest calibration sample and comparing the determined peak areas. Recovery was calculated as the ratio between the spiked concentration of the recovery sample and the concentration calculated from the peak area of this sample.

## CCCCCC(=O)N[C@H]1CSCc2cc(cc(CN3CCN(C(=O)CN4CCN(CC(=O)O)CCN(CC(=O)O)CCN(CC(=O)O)CC4)CC3)c2)CSC[C@@H](C(=O)N[C@@H](CC(=O)O)C(N)=O)NC(=O)[C@H](Cc2ccccc2)NC(=O)[C@H](CCC(N)=O)NC(=O)[C@H]([C@@H](C)O)NC(=O)[C@@H]2CCCN2C(=O)[C@@H]2CCCN2C1=O [natLu-FAP-2287, metal not drawn] (Hexanoyl-CPPTQFCD-NH2; linker 1-7 via X1; N-terminus and C-terminus assumed)
Human plasma with 3.8% sodium citrate
  Plasma Stability (24 h) Human Plasma: > 80%
Mouse plasma with 3.8% sodium citrate
  Plasma Stability (24 h) Mouse Plasma: > 80%
